Patent publication US8906888B2, “Low-calcemic 16,23-diene 25-oxime analogs of 1α,25-dihydroxy vitamin D3” (Cytochroma Inc., priority 2005, dated 2014)
pIC50: −log10 of the molar value.

Assays:
CYP24 = molecular target: T1, CYP24 (Homo sapiens, UniProt Q07973); assay: CYP24 enzyme assay (V79-CYP24 cells, 3H-1α,25(OH)2D3 substrate); assay type: cell-based; details: substrate 20 nM, 2 hours, read-out: IC50 in the inhibition of CYP24
T1 construct: expressed in transfected cells; host or cells: V79-CYP24 cells (V79 = Chinese hamster lung fibroblasts, own knowledge; kept under hygromycin selection)
T1 sequence (Q07973 36-514): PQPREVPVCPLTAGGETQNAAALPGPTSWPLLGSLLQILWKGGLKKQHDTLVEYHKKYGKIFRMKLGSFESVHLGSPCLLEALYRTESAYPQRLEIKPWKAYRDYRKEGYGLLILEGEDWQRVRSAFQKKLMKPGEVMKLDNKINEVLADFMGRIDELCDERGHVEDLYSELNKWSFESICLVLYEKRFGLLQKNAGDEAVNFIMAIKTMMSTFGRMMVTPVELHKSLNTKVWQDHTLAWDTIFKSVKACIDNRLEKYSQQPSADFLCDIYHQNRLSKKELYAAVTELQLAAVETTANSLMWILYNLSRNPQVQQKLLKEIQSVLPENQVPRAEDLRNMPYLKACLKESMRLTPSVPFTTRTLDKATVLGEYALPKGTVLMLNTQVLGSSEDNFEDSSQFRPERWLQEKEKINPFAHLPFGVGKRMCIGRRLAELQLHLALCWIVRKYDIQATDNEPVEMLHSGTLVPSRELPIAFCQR
Protocol: (i) Material and Reagents:
Substrates (1 mM) reconstituted in isopropanol
1. Preparation of Cell Suspension • On the day of the assay, washed the monolayer of V79-CYP24 cells once with 1×PBS buffer and then trypsinized for 5 min at room temperature (approx. 22° C.). Added 1×PBS. Collected cells into tube, centrifuged cells (500×g, 5 min) and resuspended in DMEM+1% BSA media. Counted cells and adjusted density to 2 million/1 mL.
2. Cell Plating • Added 80 μl of cell suspension to appropriately labeled wells of a 96-well plate. Incubated plate for 45 minutes at 37° C. in a humidified atmosphere containing 5% CO2.
3. Compound Addition • Added 10 μl of inhibitor (10^−6 to 10^−10 M) and then after 35-40 min added 10 μl of substrate [^3H-1β]-1α,25(OH)2D3 (20 nM) for 2 hours at 37° C. in a humidified atmosphere containing 5% CO2. Both inhibitor and substrate were prepared in DMEM with 1% BSA media.
4. Lipid Extraction and Counting • Added 250 μl of methanol to stop the reaction and mixed. Added […] of dichloromethane, covered block and vortexed. Added […] of dichloromethane again, added […] of saturated KCl and vortexed. Centrifuged at 3000 rpm for 30 min. Triplicate 100 μl aliquots of aqueous fraction were mixed with 200 μl of scintillation fluid and the radioactivity was measured using a scintillation counter. All values were normalized for background. (iii) Results: • 1. […] (iv) Reference: 1. PCT Patent Application Serial No. PCT/CA03/00620

CYP24 mRNA = assay: CYP24 transcriptional activation assay in U-937 cells (real time PCR); assay type: cell-based, human; details: six hours, normalized to GAPDH, 100 nM calcitriol set to 100%
Protocol: 1α,25(OH)2D3 1 mM reconstituted in isopropanol
• Sodium pyruvate • Non-essential amino acids • HEPES • 10% fetal bovine serum Phorbol 12-myristate 13-acetate (PMA) 24-well plate Isopropanol TRIzol® reagent (Invitrogen) Chloroform Ethanol Diethylpyrocarbonate treated dH2O Thermoscript™ RT-PCR System kit (Invitrogen) Human CYP24 TaqMan® Probe (Applied Biosystems Inc) Human GAPDH TaqMan® Probe (Applied Biosystems Inc) TaqMan® Universal Master Mix Probe (Applied Biosystems Inc) (ii) Procedure:
1. Cell Culture, Stimulation and Plating • Cultured U-937 cells in 4+RPMI media to a level of ≈80% confluence. Pelleted cells by centrifugation and resuspended to a concentration of 5×10^5 cells per 1 ml media. Treated U-937 cells with a final concentration of PMA of 20 ng/ml. To each well, of a 24-well plate, added 1 ml of cell suspension and incubated overnight at 37° C., in a humidified atmosphere containing 5% CO2, for adherence of cells to the wells.
2. Cell Treatment and TRIzol® Addition • Changed the media with 1 ml of fresh 4+RPMI media. Added 1 μl of the working solutions of 1, 10, and 100 μM of the compound being tested, in triplicate. Added 1 μl of isopropanol as a control, in triplicate. Incubated the cells for six hours at 37° C., in a humidified atmosphere containing 5% CO2, aspirated off the media and then added 1 ml of TRIzol® reagent. Transferred TRIzol® with cell lysate to a 1.7 ml microcentrifuge tube and stored at −80° C.
3. […] Determined the concentration of RNA using a spectrophotometer to measure the optical density of each sample, at a wavelength of 260 nm. […]
4. CYP24/GAPDH Real Time PCR • Determined the amount of CYP24 and GAPDH mRNA present in each sample using commercial TaqMan® probes, from Applied Biosystems Inc. (Foster City, Calif.). Detected both genes in the same 20 μl reaction, using an ABI PRISM 96-well optical reaction plate and cycle 50 times using an ABI Prism 7000 Sequence Detection System® (ABI). […]

OVCAR-3 cells = assay: [3H]-Thymidine proliferation assay with OVCAR-3 cells; assay type: cell-based; details: ovarian cancer cells, 6 days, 3H-thymidine incorporation
Protocol: 1. Preparation of Suspension • When OVCAR-3 cells were ˜50% confluent, aspirated media. Washed cells with 1×PBS. Trypsinized with trypsin-EDTA, collected cells from the tissue culture flask, centrifuged (200×g, 5 min) and resuspended in media.
2. Cell Plating. • Counted the cells and adjusted the cell density to 11.4×10^3 to provide 2000 cells in 175 μl (for 1 well). Distributed cell suspension into a 96 well plates at 175 μl (2000 cells) per well. Incubated plate for 24 h at 37° C. in a humidified atmosphere plus 5% CO2. • Substrate addition. • Added 25 μl of compound (final concentration 10^−7 M, 5×10^−8 M 10^−8 M, 5×10^−9 M, 10^−9 M, 10^−10M or 0 M) into each designated well. Incubated plates for 6 days without changing media and drugs at 37° C. in a humidified atmosphere plus 5% CO2.
3. [^3H]-Thymidine incorporation • Added ^3H-thymidine at 0.02 μCi per well and incubated at 37° C. in a humidified atmosphere plus 5% CO2 for 6 h.
4. Plate Harvesting. • Aspirated all media and washed cells with 1×PBS. Trypsinized cells for 30 min at 37° C. in a humidified atmosphere plus 5% CO2. Harvested cells onto a 96 well filter plate (Millipore) using a Tomtec Cell Harvestor, according to manufacturers instructions.
5. Scintillation Counting. • Added 25 μl of scintillation fluid per well. Counted the plate using a scintillation counter. Results: Compounds (20R)-I(a), (20R)-I(c) and (20R)-I(e) all inhibited the proliferation of OVCAR-3 cells.

[1] = Standard hypercalcemia assay (urine calcium, oral daily dosing for one week); assay type: in vivo; details: rat

SMILES | pIC50 (CYP24) | CYP24 mRNA induction, activity as % of that for calcitriol at 100 nM (CYP24 mRNA) [%] | Inhibition of OVCAR-3 cell proliferation (OVCAR-3 cells) | Levels of calcium in the urine [1]
C=C1/C(=C\C=C2/CCC[C@]3(C)C([C@H](C)C/C=C/C(=N\OC)C(F)(F)F)=CC[C@@H]23)C[C@@H](O)C[C@@H]1O [(20R)-I(a)] | 6.31 | 54 | inhibited | 
C=C1/C(=C\C=C2/CCC[C@]3(C)C([C@H](C)C/C=C/C(=N\OC)C4CC4)=CC[C@@H]23)C[C@@H](O)C[C@@H]1O [(20R)-I(c)] | 7.07 | 30 | inhibited | 
C=C1/C(=C\C=C2/CCC[C@]3(C)[C@@H]([C@H](C)CCCC(C)(C)O)CC[C@@H]23)C[C@@H](O)C[C@@H]1O [calcitriol, 1α,25-Dihydroxy vitamin D3] |  |  |  | significant increase
